Test results taken from US20200207872A1, “METHODS FOR TREATING INFLAMMATION AND RELATED DISEASES AND DISORDERS BY INHIBITING ALPHA PROTEIN KINASE 1” (Shanghai Yao Yuan Biotechnology Co., Ltd., priority 2017, published 2020).

Tests used:
ALPK1 = ALPK1 (Homo sapiens, UniProt Q96QP1); assay: Screening of small molecule libraries for inhibitory activity against ALPK1 (binding, kinase and cell-based cytokine secretion assays); type: biochemical; conditions: performance in the binding and kinase assays and in at least two cell-based assays
Source text: An ALPK1 inhibitor was identified by screening libraries of small molecules for inhibitory activity against ALPK1. Various assays were used to screen the libraries including binding assays, kinases assays, and cell-based assays for cytokine secretion.

[1] = system: DSS-induced colitis model; assay: DSS-induced colitis model, body weight; type: in vivo; conditions: female wild type FVC mice, 3% DSS day 0 to day 5, then 1 mg/kg IP daily in DMSO vs DMSO alone
Experimental: Mice were treated with 3% DSS from day 0 to day 5 then changed to drinking water and injected IP with either MI6C (1 mg/kg) dissolved in DMSO (n=6) or DMSO alone (n=5) daily.
The ability of MI6 to ameliorate inflammation in the DSS-induced colitis model was evaluated as follows. 8 weeks old female wild type FVC mice were treated with 3% DSS (Sodium salt, MW 40K-50K, from Affymetrix) from day 0 to day 5. The mice were then changed to drinking water. Mice were injected intraperitoneally (IP) with either MI6 (1 mg/kg) dissolved in DMSO (n=6) or DMSO alone (n=5) daily. Animals were weighed daily.

Chain of ALPK1 (Q96QP1 whole entry): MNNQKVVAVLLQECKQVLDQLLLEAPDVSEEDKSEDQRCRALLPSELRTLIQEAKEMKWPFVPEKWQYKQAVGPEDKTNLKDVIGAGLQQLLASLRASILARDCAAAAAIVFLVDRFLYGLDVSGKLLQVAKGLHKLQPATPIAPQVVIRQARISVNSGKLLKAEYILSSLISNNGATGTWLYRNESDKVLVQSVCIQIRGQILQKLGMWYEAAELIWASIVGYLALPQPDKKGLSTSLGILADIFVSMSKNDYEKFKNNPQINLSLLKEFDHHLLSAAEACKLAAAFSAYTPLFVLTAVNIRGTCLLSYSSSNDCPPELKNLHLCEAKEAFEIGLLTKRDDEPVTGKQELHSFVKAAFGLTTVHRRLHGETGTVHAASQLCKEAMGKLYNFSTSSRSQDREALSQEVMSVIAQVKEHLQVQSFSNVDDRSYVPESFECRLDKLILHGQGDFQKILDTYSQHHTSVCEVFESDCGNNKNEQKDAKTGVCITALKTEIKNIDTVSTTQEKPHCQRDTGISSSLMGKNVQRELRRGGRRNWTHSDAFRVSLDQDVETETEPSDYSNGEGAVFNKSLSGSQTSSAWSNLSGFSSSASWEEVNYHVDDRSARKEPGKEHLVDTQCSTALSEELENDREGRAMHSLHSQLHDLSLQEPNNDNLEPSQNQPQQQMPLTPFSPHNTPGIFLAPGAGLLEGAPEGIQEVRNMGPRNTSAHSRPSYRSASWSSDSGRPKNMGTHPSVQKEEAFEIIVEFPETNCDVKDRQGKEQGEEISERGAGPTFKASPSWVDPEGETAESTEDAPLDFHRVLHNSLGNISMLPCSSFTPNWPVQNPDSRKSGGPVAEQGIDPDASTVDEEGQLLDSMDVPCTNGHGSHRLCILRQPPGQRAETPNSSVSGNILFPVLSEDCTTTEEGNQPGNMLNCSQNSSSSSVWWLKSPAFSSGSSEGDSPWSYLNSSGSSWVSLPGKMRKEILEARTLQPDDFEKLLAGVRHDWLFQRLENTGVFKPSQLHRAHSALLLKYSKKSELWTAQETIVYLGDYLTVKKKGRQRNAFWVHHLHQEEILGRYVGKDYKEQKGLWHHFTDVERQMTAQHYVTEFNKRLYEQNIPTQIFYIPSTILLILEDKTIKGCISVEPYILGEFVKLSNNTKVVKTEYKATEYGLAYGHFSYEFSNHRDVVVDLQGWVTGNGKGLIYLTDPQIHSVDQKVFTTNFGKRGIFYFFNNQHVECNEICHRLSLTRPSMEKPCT

inhibitory activity against ALPK1 (ALPK1): identified as an ALPK1 inhibitor
Compound: CCCCCCCCCCCCCCCC[n+]1ccn(Cc2ccccc2)c1C [MI6, 1-benzyl-3-hexadecyl-2-methyl-1H-imidazol-3-ium]
weight gain (change in weight relative to day 0) / recovery [1]: improved weight gain
weight gain (change in weight relative to day 0) / recovery ([1]; listed as MI6C): improves recovery
